Five molecules from patent publication US10934297B2, “5-heteroaryl substituted indazole-3-carboxamides and preparation and use thereof” (Samumed, LLC, priority 2018, dated 2021) can be followed below.

In assay [1] the test system is Wnt activity (Sp5-Luc reporter in SW480 cells). Briefly: Screening assay for Wnt activity: Sp5-Luc reporter gene assay in SW480 colon carcinoma cells. The assay is classed as cell-based, human. To be noted: Homo sapiens, 36 to 48 hours. The method, boiled down:
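SW480 colon carcinoma cells stably carrying a lentiviral luciferase reporter driven by an Sp5 promoter with eight TCF/LEF sites, plated at 4,000 cells/well in DMEM with 1% FBS. Compound exposure for 36–48 h at 37 °C, then luminescence read. Signals normalized to DMSO; EC50 from four-parameter nonlinear fit.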

The target of a further assay is DYRK1A kinase (Homo sapiens (Human), UniProt Q13627). The experiment in a line: DYRK1A kinase assay (Ser/Thr 18 peptide Z-lyte FRET). It is filed as biochemical. To be noted: read-out: EC50 (method: IC50). In short, it runs like this:
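This Z-lyte FRET assay reads the coumarin/fluorescein emission ratio. Compounds were incubated with the reaction mixture for 1 h at room temperature, followed by development reagent for a further 1 h at room temperature, in duplicate.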

The target in the next assay is GSK3β kinase (Homo sapiens (Human), UniProt P49841). The experiment in a line: GSK3β kinase assay (Ser/Thr 09 peptide Z-lyte FRET). It is filed as biochemical. The settings on record: read-out: EC50 (method: IC50). The method, boiled down:
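Non-radioactive Z-lyte FRET read-out, kinase activity expressed as coumarin/fluorescein emission ratio. Compounds incubated with the reaction mixture one hour at room temperature in duplicate, then development buffer added for another hour. IC50 from non-linear regression of dose-response curves.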

For assay [2], the system named is SW480 colon carcinoma cells. The experiment in a line: Cell viability assay (CellTiter-Glo) in SW480 colon carcinoma cells. The assay is classed as cell-based, human. The settings on record: Homo sapiens, 96 h, four days. In short, it runs like this:
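SW480 cells stably carrying an Sp5-promoter luciferase reporter were plated at 2,000 cells/well in DMEM with 1% FBS and treated with compound for four days at 37 °C. Viability was read as ATP luminescence with CellTiter-Glo after about 12 min; DMSO-treated wells served as controls.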
On the technique in general: ATP-based viability assays read luminescence as a measure of living cells.

Assay [3] has as its system primary human fibroblasts derived from IPF patients (LL29 cells). Briefly: Inhibition of the fibrotic process: αSMA staining in TGF-β1 treated LL29 fibroblasts. The assay is classed as cell-based. The settings on record: Homo sapiens, Fibroblast, 96 h; LL29 cells, TGF-β1 20 ng/mL, 4 days, % αSMA positive cells. The method, boiled down: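 LL29 fibroblasts from IPF patients, in F12 medium with 1% FBS, treated with TGF-β1 plus compound; TGF-β1 with DMSO as positive control, DMSO alone as negative control. After 4 days' incubation, SYTOX green nucleic acid stain added at 1 μM final, 30 min at room temperature.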

For the next assay, the system named is IL-6. The experiment in a line: IL-6 inhibition in LPS-stimulated human peripheral blood mononuclear cells (HTRF). The settings on record: Homo sapiens, PBMC; for EC50: huPBMCs, LPS 50 ng/mL, 22 hours, IL-6 HTRF. It is filed as cell-based. In short, it runs like this:
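Fresh human PBMCs at 1×10e6 cells/mL in RPMI/1% FBS were stimulated with 50 ng/mL E. coli 0111:B4 LPS added 2 h after compound, then incubated 22 h at 37° C. Secreted IL-6 was measured by HTRF (665/620 nm ratio) after 3 h at room temperature. EC50 was taken from activity normalized to DMSO-treated cells.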

For assay [4], the system named is primary human mesenchymal stem cells (hMSCs). The experiment in a line: Tenocyte differentiation assay (SCXA-positive cells) in hMSCs. It is filed as cell-based. The settings on record: for EC50: Homo sapiens, Mesenchymal stem cells, 96 h, hMSCs, 4 days, SCXA positive cells; for percent in parentheses under EC50 >100: given for EC50 >100 μM, meaning not defined in this example. In short, it runs like this: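 Passage 3–6 hMSCs were compound-treated, fixed in 4% formaldehyde and stained overnight at 4 °C with anti-SCXA antibody; SCXA-positive cells were counted by imaging. Counts were normalized to the mean of 12 DMSO wells as fold change, averaged over 3 replicate wells per concentration, and curve-fitted for EC50.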

Chain of GSK3β kinase (P49841 whole entry): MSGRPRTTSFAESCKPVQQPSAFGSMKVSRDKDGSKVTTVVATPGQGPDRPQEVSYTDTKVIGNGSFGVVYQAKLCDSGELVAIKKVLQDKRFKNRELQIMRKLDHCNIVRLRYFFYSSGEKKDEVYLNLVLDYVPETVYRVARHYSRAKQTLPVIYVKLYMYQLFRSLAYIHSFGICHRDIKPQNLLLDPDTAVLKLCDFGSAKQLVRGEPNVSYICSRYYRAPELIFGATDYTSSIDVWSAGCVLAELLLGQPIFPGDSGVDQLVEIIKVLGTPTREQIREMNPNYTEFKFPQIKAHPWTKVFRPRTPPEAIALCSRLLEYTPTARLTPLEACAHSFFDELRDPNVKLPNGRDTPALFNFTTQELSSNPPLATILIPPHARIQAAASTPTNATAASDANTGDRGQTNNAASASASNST

Take `CN1CCC(Oc2ccc(NC(=O)c3n[nH]c4cc(F)c(-c5ccn(C)n5)cc34)cc2)CC1` [Compound 160, 6-Fluoro-5-(1-methyl-1H-pyrazol-3-yl)-N-(4-((1-methylpiperidin-4-yl)oxy)phenyl)-1H-indazole-3-carboxamide]: the EC50 in assay [1] is 3560 nM; in assay [2], 2600 nM; in assay [3], 3240 nM; in the assay on IL-6, > 10000 nM; in assay [4] it was > 100000 nM. Moreover, the values for the IC50 on DYRK1A kinase and at GSK3β kinase were 61 nM and 3260 nM, respectively. Also, the inhibition at 10 µM with IL-6 (read-out: percent inhibition at 10 μM) amounted to 27.9%. Besides, the “percent in parentheses under EC50 >100” value in assay [4] is “(18.6%)”.

Consider `Cc1ncc(-c2ccc3[nH]nc(C(=O)Nc4ccc(OC5CCN(C)CC5)cc4)c3c2)n1C` [Compound 161, 5-(1,2-Dimethyl-1H-imidazol-5-yl)-N-(4-((1-methylpiperidin-4-yl)oxy)phenyl)-1H-indazole-3-carboxamide], for which the half-maximal effective concentration (EC50) is 642 nM in assay [1]; 833 nM in assay [2]; 3720 nM in assay [3]; 3400 nM with IL-6; > 100000 nM in assay [4]. Further, the results for the IC50 at DYRK1A kinase and at GSK3β kinase were 5 nM and 120 nM, respectively. The “percent in parentheses under EC50 >100” value in assay [4] is given as “(31.8%)”.

`Cc1nc(-c2ccc3[nH]nc(C(=O)Nc4ccc(OC5CCN(C)CC5)cc4)c3c2)cs1` [Compound 162, N-(4-((1-Methylpiperidin-4-yl)oxy)phenyl)-5-(2-methylthiazol-4-yl)-1H-indazole-3-carboxamide]: the EC50 is > 10000 nM in assay [1]; 4600 nM in assay [2]; 2640 nM in assay [3]; 7690 nM with IL-6; > 100000 nM in assay [4]. The IC50 on DYRK1A kinase was determined as 141 nM; at GSK3β kinase, 5060 nM. In addition, the “percent in parentheses under EC50 >100” value in assay [4] is on record as “(12.7%)”.

As to `Cc1ncc(-c2cc3c(C(=O)Nc4ccc(OC5CCN(C)CC5)cc4)n[nH]c3cc2F)s1` [Compound 163, 6-Fluoro-N-(4-((1-methylpiperidin-4-yl)oxy)phenyl)-5-(2-methylthiazol-5-yl)-1H-indazole-3-carboxamide], the EC50 in assay [1] is 1530 nM; in assay [2], 331 nM; in assay [3], 1000 nM; in the assay on IL-6 it was 8830 nM; in assay [4], > 100000 nM. In addition, the IC50 at DYRK1A kinase was 4 nM; at GSK3β kinase, 94 nM. In addition, the “percent in parentheses under EC50 >100” value in assay [4] is reported as “(40.7%)”.

On to `Cc1cc(-c2ccc3[nH]nc(C(=O)Nc4ccc(OC5CCN(C)CC5)cc4)c3c2)sn1` [Compound 164, 5-(3-Methylisothiazol-5-yl)-N-(4-((1-methylpiperidin-4-yl)oxy)phenyl)-1H-indazole-3-carboxamide], for which the EC50 in assay [1] is 1380 nM; in assay [2] it was 268 nM; in assay [3], 305 nM; with IL-6, 1330 nM; in assay [4], > 100000 nM. For the same molecule, the concentration for half-maximal inhibition (IC50) on DYRK1A kinase came to 3 nM; at GSK3β kinase, 88 nM. For the same molecule, the “percent in parentheses under EC50 >100” value in assay [4] is given as “(33.1%)”.

A word on the EC50: it is the concentration needed to bring the measured effect to its halfway point. Higher therefore signals lower potency in that assay. What is called IC50 is the concentration that gives 50% inhibition. By inhibition is commonly meant the relative decrease from the control value, in per cent.
